Measured values published in patent US11377427B2, “Triazoles for regulating intracellular calcium homeostasis” (UNIVERSIDAD DEL PAIS VASCO, priority 2016, dated 2022).

Assays:
[1] = system: left ventricle of a rat heart; conditions: concentrations of 10^-6 M; in vitro; without affecting left ventricular heart rate or pressure; cited from earlier work
mdx mice [2] = assay: Muscle degeneration/regeneration: percentage of central nuclei in muscle cryosections of mdx mice; format: in vivo, mouse; conditions: 5-week treatment of mdx mice; 0.25 mg/mL in drinking water; FIG. 5
Procedure: After concluding the 5-week treatment, the tibialis anterior muscle was obtained and processed for subsequent biochemical and immunohistological analysis to determine the degree of muscle damage. Cell-death derived regeneration was determined in muscle cryosections by means of quantifying the percentage of central nuclei using standard immunofluorescence techniques for detecting collagen IV and cell nuclei.

[3] = system: fibers isolated from mouse flexor digitorum brevis muscle (dystrophic MDX fibers); assay: Baseline intracellular calcium levels in mouse muscle fibers (Fura 2-AM); format: cell-based; conditions: 150 nM, overnight treatment; FIG. 2
Procedure: Fibers isolated from mouse flexor digitorum brevis muscle were cultured overnight in the presence or absence of compounds AHK1 and AHK2 at a concentration of 150 nM. Baseline intracellular calcium levels were evaluated by means of incubating the fibers with Fura 2-AM ratiometric fluorochrome (4 μM) and pluronic acid (0.02%) for 30 minutes at 37° C., in the culture medium. The fibers were viewed with a high-resolution digital camera and intracellular [Ca^2+] was estimated by means of a 340 nm/380 nm excitation ratio.

mdx mice [4] = assay: Isoproterenol-induced cardiomyopathy in mdx mice (Evans Blue uptake); format: in vivo, mouse; conditions: four-month old mdx mice; 5-week treatment, 0.25 mg/mL in drinking water; FIG. 8
Procedure: The myocardium of the four-month old dystrophic mdx mice is highly susceptible to mechanical stress and the compound isoproterenol induces cardiomyopathy in these mice (FIG. 8). Cardiomyocyte sarcolemma integrity was determined by means of measuring the uptake of Evans Blue dye that accumulates in cardiomyocytes with membrane damage. Evans Blue was administered 24 hours before extracting the hearts at a concentration of 10 mg/ml by means of intraperitoneal injection (10 μl/g of body weight). Damage with isoproterenol was carried out by means of 3 sequential intraperitoneal injections of beta-isoproterenol (350 ng/g of body weight) 18, 20 and 22 hours after administering Evans Blue in order to determine the degree of muscle damage. Cell-death derived regeneration was determined in muscle cryosections by means of quantifying the percentage of central nuclei, using standard immunofluorescence techniques for detecting collagen IV and cell nuclei.

mdx mice [5] = assay: Exacerbated defense response (freezing) after acute stress in mdx mice; format: in vivo, mouse; conditions: four-month old mdx mice; five-week treatment, 0.25 mg/mL in drinking water; FIG. 7
Procedure: To determine the effect of the compounds according to the invention on the heart and CNS, four-month old mice were treated for 5 weeks with compound AHK2 in drinking water at a concentration of 0.25 mg/mL. The four-month old mdx mice show an exacerbated defense response after acute stress which is independent of motor, cardiac and respiratory deficiencies, and is controlled by central mechanisms (FIG. 7). Acute stress was brought about by means of manual immobilizations for 15 seconds in a posture commonly used for performing intraperitoneal injections. After acute stress, the mice are monitored for 1 minute and the % of freezing time or tonic immobility periods of at least 1 second with 90% immobility sensitivity is calculated.

[6] = biological target: T1, RyR1-calstabin1 interaction (Homo sapiens, UniProt P21817+P62942); assay: RyR1-calstabin1 interaction by in situ PLA in human myotubes under SIN1 nitro-oxidative stress; format: cell-based; conditions: pre-treated 12 hours at 150 nM; SIN1 5 mM 30 minutes; FIG. 3
T1 construct: endogenous in cells; host or cells: LHCN-M2 human myotubes (differentiated for 9 days)
Procedure: This assay was carried out in human control myotubes LHCN-M2 after 9 days in differentiation medium. Said myotubes were pre-treated for 12 hours with compounds AHK1 and AHK2 at a concentration of 150 nM. After treatment, the myotubes were subjected to peroxynitrite-induced nitro-oxidative stress by means of the addition of SIN1 (5 mM) for 30 minutes. RyR1-calstabin colocalization was analyzed by means of the in situ proximity ligation technique (in situ PLA) for which Sigma's Duolink II Network Fluorescence Kit and RyR1- and calstabin 1-specific antibodies were used. This technique allows detecting the exact location of two antigens located at a distance less than 40 nm from one another. To determine RyR1-calstabin-1 colocalization, 3 photographs were quantified for each condition with about 9 myotubes per field, using Image J computer software (http://rsb.info.nih.gov/ij/download.html). The colocalization area in each image was normalized to the myosin expression area, which was determined by means of immunofluorescence with a fluorescein-conjugated specific antibody.

mdx mice [7] = assay: Grip strength of dystrophic mdx mice; format: in vivo, mouse; conditions: 0.25 mg/mL in drinking water, one-month old mdx mice
Procedure: One-month old male dystrophic mdx mice supplied by Jackson Laboratory (https://www.jax.org/strain/001801) were used. The biological assays for measuring the effect of the Ahulken (AHK) compounds on muscle function were performed with one-month old mice, whereas the in vivo assays for determining the effect on the heart and CNS were performed with four-month old mice. The one-month old mice were treated with compound AHK1 or compound AHK2 for 5 weeks, where said compounds were administered in drinking water at a concentration of 0.25 mg/mL. The muscle strength of the front paws was measured every week using a grip strength meter and the obtained value was normalized by the body weight of the animal. To that end, the indications described in the TREAT-NMD Neuromuscular Network protocol (http://www.treat-nmd.eu/downloads/file/sops/dmd/MDX/DMD_M.2.2.001.pdf) were followed.

[8] = system: human control myotubes LHCN-M2; assay: In vitro toxicity in human myotubes, CytoTox 96 colorimetric assay; format: cell-based; conditions: 24 hours of incubation
Procedure: These assays were carried out in human control myotubes LHCN-M2 after 14 days in differentiation medium. To determine the toxicity of the different analyzed compounds, particularly AHK1 and AHK2 according to the invention, these compounds were added to the culture medium for 24 hours at 37° C. at different concentrations (0-2 mM). For comparison purposes, the same assay was performed by adding reference compound S-107. Cell viability was determined by means of Cytotox 96 (Promega) colorimetric assay following instructions in the manual.

T1 sequence (P21817 whole entry): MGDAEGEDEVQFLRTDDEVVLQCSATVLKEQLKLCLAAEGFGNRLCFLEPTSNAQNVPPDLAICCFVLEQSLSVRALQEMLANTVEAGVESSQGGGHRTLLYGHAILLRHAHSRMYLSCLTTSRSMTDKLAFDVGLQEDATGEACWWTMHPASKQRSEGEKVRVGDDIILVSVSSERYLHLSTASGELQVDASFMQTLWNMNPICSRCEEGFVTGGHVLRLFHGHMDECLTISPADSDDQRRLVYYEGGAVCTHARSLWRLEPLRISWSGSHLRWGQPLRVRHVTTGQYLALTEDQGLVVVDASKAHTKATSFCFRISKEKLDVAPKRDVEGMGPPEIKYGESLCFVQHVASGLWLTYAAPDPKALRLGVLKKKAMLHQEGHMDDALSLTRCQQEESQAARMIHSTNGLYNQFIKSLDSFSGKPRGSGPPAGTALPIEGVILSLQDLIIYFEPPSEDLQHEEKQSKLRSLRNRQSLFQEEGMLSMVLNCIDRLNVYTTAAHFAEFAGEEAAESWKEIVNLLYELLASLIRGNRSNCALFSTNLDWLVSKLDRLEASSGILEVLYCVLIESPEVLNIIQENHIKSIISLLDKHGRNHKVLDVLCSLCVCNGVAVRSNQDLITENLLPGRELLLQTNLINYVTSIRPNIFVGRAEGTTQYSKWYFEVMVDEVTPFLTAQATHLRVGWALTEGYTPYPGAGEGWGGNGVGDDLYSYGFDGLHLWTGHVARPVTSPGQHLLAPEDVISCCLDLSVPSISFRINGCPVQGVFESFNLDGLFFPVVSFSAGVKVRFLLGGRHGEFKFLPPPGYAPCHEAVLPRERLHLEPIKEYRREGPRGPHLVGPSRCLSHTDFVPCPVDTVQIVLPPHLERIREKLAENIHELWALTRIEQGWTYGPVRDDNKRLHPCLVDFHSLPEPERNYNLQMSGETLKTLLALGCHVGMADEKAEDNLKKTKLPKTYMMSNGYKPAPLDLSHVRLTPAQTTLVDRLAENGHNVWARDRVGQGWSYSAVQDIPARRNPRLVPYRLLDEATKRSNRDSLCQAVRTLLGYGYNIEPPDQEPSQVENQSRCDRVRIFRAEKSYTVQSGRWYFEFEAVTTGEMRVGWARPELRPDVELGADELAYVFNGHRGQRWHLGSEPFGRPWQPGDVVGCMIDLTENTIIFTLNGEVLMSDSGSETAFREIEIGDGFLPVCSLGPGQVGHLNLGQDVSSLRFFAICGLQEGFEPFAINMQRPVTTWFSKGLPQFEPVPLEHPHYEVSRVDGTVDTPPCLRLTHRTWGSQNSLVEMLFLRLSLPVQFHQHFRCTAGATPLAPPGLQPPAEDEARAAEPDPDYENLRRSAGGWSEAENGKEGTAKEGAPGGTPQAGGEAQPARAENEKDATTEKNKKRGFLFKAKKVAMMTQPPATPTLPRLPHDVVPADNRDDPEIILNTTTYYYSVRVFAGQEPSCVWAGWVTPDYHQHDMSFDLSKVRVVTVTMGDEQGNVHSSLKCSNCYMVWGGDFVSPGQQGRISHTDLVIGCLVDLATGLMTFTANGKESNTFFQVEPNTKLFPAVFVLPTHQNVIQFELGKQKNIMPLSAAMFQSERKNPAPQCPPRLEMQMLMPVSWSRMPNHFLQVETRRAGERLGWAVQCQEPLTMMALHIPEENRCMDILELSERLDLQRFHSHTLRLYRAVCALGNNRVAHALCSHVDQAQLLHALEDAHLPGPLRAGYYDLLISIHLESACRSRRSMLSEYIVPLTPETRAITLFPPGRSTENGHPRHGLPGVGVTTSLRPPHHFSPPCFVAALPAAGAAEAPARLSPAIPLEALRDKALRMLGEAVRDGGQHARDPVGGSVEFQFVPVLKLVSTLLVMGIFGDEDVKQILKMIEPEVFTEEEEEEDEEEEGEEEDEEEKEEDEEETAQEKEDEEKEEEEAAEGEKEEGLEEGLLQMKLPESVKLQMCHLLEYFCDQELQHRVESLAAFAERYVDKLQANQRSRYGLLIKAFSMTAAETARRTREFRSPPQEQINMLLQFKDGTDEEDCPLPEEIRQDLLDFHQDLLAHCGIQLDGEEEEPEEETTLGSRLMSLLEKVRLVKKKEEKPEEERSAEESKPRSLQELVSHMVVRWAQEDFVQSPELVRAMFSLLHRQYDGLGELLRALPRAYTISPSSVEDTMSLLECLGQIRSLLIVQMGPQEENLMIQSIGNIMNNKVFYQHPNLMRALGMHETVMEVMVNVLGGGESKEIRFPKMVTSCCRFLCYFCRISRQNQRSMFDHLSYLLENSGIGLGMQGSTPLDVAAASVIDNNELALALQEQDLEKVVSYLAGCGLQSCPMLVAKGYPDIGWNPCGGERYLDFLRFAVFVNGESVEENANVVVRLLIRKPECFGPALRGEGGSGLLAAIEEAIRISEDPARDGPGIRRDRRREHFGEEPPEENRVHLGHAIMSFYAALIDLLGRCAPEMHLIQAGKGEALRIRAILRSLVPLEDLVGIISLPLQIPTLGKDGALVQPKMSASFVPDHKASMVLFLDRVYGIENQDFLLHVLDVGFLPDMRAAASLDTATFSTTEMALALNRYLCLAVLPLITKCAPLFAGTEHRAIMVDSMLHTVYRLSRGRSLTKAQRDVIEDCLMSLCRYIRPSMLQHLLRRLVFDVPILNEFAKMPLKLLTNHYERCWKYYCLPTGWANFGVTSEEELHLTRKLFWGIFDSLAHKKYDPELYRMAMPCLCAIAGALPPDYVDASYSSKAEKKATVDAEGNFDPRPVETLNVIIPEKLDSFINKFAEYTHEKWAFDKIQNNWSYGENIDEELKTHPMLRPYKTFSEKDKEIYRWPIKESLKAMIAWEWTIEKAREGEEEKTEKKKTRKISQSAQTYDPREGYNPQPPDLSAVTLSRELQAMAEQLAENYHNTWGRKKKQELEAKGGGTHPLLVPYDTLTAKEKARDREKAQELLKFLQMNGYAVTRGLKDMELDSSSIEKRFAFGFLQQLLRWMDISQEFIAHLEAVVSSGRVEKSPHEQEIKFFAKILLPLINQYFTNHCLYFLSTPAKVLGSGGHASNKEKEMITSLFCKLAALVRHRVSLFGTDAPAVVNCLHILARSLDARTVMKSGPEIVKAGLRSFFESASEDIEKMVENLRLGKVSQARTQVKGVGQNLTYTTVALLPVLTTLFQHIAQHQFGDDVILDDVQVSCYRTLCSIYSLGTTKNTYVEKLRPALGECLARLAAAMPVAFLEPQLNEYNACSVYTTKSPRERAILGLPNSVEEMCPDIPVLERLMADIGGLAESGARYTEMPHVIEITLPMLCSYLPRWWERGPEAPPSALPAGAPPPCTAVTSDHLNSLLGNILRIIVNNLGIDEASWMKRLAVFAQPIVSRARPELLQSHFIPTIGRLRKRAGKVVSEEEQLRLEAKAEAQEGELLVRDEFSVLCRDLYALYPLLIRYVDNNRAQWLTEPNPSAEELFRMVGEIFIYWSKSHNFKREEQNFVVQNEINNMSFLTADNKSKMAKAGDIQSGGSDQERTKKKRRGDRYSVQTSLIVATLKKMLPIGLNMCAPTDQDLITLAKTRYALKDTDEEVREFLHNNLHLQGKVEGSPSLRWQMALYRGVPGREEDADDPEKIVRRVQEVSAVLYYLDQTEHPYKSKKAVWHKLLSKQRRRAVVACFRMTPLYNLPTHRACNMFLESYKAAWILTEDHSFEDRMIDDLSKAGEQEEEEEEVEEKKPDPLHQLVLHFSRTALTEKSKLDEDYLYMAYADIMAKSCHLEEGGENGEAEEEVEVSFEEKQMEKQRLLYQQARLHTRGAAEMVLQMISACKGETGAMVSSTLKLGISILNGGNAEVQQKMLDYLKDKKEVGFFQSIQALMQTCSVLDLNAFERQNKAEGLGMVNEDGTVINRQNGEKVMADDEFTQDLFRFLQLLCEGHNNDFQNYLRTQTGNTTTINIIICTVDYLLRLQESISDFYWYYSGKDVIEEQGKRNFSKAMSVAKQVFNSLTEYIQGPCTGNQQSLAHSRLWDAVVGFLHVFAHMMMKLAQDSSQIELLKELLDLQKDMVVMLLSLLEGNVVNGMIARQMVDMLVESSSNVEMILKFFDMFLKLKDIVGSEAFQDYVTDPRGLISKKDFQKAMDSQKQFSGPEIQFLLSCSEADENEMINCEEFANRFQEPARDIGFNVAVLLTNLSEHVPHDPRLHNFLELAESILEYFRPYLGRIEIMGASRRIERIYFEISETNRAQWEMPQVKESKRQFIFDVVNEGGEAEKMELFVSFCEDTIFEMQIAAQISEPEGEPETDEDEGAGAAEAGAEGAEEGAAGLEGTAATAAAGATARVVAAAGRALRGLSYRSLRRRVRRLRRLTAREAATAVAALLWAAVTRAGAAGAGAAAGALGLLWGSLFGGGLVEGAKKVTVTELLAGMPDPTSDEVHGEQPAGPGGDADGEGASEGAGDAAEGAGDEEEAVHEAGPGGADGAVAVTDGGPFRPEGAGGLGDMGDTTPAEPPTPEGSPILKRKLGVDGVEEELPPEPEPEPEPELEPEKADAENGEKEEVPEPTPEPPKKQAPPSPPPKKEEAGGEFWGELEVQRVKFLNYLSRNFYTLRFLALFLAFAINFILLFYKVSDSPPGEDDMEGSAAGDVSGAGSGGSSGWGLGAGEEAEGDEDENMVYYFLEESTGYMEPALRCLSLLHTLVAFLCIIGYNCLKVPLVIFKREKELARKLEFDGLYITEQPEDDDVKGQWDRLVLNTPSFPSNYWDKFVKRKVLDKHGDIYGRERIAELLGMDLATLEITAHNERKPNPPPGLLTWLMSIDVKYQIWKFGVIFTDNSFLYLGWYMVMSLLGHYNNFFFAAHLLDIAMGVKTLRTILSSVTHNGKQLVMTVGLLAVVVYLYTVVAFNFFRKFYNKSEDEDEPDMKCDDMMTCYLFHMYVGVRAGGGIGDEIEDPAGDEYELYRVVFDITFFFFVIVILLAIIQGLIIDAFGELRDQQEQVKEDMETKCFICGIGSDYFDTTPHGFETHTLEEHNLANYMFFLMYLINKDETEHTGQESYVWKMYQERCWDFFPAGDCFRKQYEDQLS
T1 sequence (P62942 2-108 limits assumed): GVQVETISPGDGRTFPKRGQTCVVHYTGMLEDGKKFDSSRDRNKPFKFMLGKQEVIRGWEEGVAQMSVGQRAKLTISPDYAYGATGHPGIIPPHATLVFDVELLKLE

## COc1ccc(SCc2cn(CC(=O)O)nn2)cc1 [Example 11, 1-carboxymethyl-4-[4-(methoxy)phenylthiomethyl]-1H-1,2,3-triazole]
other
  melting point: 163 to 170 °C

## COc1cccc(S(=O)(=O)Cc2cn(CC(=O)O)nn2)c1 [Example 22, 1-carboxymethyl-4-[3-(methoxy)phenylsulfonylmethyl]-1H-1,2,3-triazole]
other
  melting point: 106 to 115 °C

## 4-[3-(4-benzylpiperidinyl)-propanoyl]-2,3,4,5-tetrahydro-1,4-benzothiazepine [JTV-519]
[1]
  adrenaline- and caffeine-induced myocardial necrosis: inhibits

## COc1ccc(SCc2cn(CCN(C)C)nn2)cc1 [AHK2, 1-[2-(N,N-dimethylamino)ethyl]-4-[4-(methoxy)phenylthiomethyl]-1H-1,2,3-triazole]
Mdx mice [2]
  percentage of central nuclei: significantly reduced
[3]
  intracellular calcium levels at rest in MDX fibers: brought intracellular calcium levels back to the control levels
Mdx mice [4]
  cardiomyocyte sarcolemma integrity (Evans Blue uptake): increases
  isoproterenol-induced damage of the myocardium: protects the myocardium from isoproterenol-induced damage
Mdx mice [5]
  exacerbated defense response-related CNS phenotype (% of freezing time after acute stress): significantly improves
[6]
  dissociation of the RyR1-Calst1 complex in the presence of SIN1: partially prevented
Mdx mice [7]; after 2 weeks of treatment
  grip strength compared to untreated littermates: increased significantly
Mdx mice [7]; after 5 weeks of treatment, FIG. 4
  increase of muscle strength: 20%
[8]; concentrations between 10 nM and 2 mM, FIG. 1
  in vitro acute toxicity against human myotubes: do not show in vitro acute toxicity

## COc1ccc2c(c1)CN(C)CCS2 [Example S-107, reference compound]
[8]; concentration of 1 mM
  cellular toxicity: 100%

## O=C(O)Cn1cc(CSc2cccc(Cl)c2)nn1 [Example 23, 1-carboxymethyl-4-[3-(chloro)phenylthiomethyl]-1H-1,2,3-triazole]
other
  melting point: 146 to 148 °C
